Numbers after ± are expanded uncertainties.
Assay: wn = mass fraction of the nth substance listed
Conditions: 298.2 K, Pendant drop shape

CCCC[N+](CCCC)(CCCC)CCCC.[Br-] [tetrabutylammonium bromide] + O
surface tension liquid-gas (w1 = 0.0697): 53.82 ± 1.4 mN/m | surface tension liquid-gas (w1 = 0.1): 50.58 ± 1.3 mN/m | surface tension liquid-gas (w1 = 0.14): 49.72 ± 1.2 mN/m | surface tension liquid-gas (w1 = 0.3): 46.19 ± 1.1 mN/m | surface tension liquid-gas (w1 = 0.4): 44.48 ± 1.2 mN/m

From the NIST ThermoML archive (doi:10.1016/j.jct.2015.08.039)
